# pIC50: −log10 of the molar value.
# How the values were obtained:
# [1] = test system: E. coli NCTC 13441 (UPEC); assay: MIC broth microdilution; type: cell-based, Escherichia coli; conditions: Escherichia coli, NCTC13441
# In short: (§1)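 Compounds are diluted two-fold across a final range of 0.39-200 μM, keeping DMSO no higher than 2% final. Bacteria in cation-adjusted Müller-Hinton broth are then incubated at 37° C under ambient atmosphere for 20-24 h. The lowest growth-inhibiting concentration gives the MIC.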
# [2] = test system: Acinetobacter baumannii ATCC 17978 (AB); assay: MIC broth microdilution; type: cell-based; conditions: ATCC17978
# In short: as §1
# [3] = test system: Escherichia coli K12 (EC); assay: MIC broth microdilution; type: cell-based
# In short: as §1
# [4] = test system: Klebsiella pneumoniae ATCC 10031 (KP2); assay: MIC broth microdilution; type: cell-based; conditions: ATCC10031
# In short: (§2)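 Two-fold dilution series, 0.39-200 μM final, max 2% DMSO; CA-MHB; 37° C, ambient air, 20-24 h; MIC = lowest conc. inhibiting visible growth. CLSI broth microdilution.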
# [5] = test system: Klebsiella pneumoniae ATCC 51504 (KP4); assay: MIC broth microdilution; type: cell-based; conditions: ATCC51504
# In short: as §1
# [6] = test system: Pseudomonas aeruginosa ATCC 33359 (PA); assay: MIC broth microdilution; type: cell-based; conditions: ATCC33359
# In short: as §1
# [7] = test system: Staphylococcus aureus ATCC 35556 (SA); assay: MIC broth microdilution; type: cell-based; conditions: ATCC35556
# In short: as §1
# [8] = test system: K. pneumoniae ATCC 700603 (KP3); assay: MIC broth microdilution; type: cell-based, Klebsiella pneumoniae; conditions: Klebsiella pneumoniae, ATCC700603
# In short: as §2
# [9] = test system: K. pneumoniae H151440671 (KP10); assay: MIC broth microdilution; type: cell-based, Klebsiella pneumoniae; conditions: Klebsiella pneumoniae
# In short: as §2
# [10] = test system: K. pneumoniae H154020667 (KP6); assay: MIC broth microdilution; type: cell-based, Klebsiella pneumoniae; conditions: Klebsiella pneumoniae
# In short: as §2
# [11] = test system: K. pneumoniae H154300688 (KP9); assay: MIC broth microdilution; type: cell-based, Klebsiella pneumoniae; conditions: Klebsiella pneumoniae
# In short: as §2
# [12] = test system: K. pneumoniae H154600588 (KP8); assay: MIC broth microdilution; type: cell-based, Klebsiella pneumoniae; conditions: Klebsiella pneumoniae
# In short: as §2
# [13] = test system: K. pneumoniae H154640784 (KP7); assay: MIC broth microdilution; type: cell-based, Klebsiella pneumoniae; conditions: Klebsiella pneumoniae
# In short: as §2
# [14] = test system: K. pneumoniae H154680676 (KP5); assay: MIC broth microdilution; type: cell-based, Klebsiella pneumoniae; conditions: Klebsiella pneumoniae
# In short: as §2
# [15] = test system: K. pneumoniae NCTC 13438 (KP1); assay: MIC broth microdilution; type: cell-based, Klebsiella pneumoniae; conditions: Klebsiella pneumoniae, NCTC13438
# In short: as §2
# [16] = test system: human hepatocarcinoma cell line ATCC HB-8065 (HepG2); assay: Human cell viability (CellTiter-Glo); type: cell-based; conditions: Homo sapiens; HepG2 cells, 24 h incubation, CellTiter-Glo luminescence, 0.2-100 μM; read-out: IC50 values against the HepG2 cell line
# In short: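 HepG2 cells were seeded at 20,000 cells/well in MEM with 10% FBS and, after 24 h, exposed for 24 h at 37° C. to two-fold dilutions (final 0.2-100 μM) in MEM with 1% FBS and 1% DMSO. Viability was read by CellTiter-Glo luminescence, with IC50 from a 4-parameter logistic fit.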
MIC [1] [µM],MIC [2] [µM],MIC [3] [µM],MIC [4] [µM],MIC [5] [µM],MIC [6] [µM],MIC [7] [µM],MIC [8] [µM],MIC [9] [µM],MIC [10] [µM],MIC [11] [µM],MIC [12] [µM],MIC [13] [µM],MIC [14] [µM],MIC [15] [µM],pIC50 [16],Structure (SMILES)
1 to 10,> 100,≤ 1,≤ 1,≤ 1,> 100,> 100,1 to 10,≤ 1,≤ 1,1 to 10,1 to 10,1 to 10,≤ 1,1 to 10,< 4.00,"CCN1CCOc2ccc(-c3nc(N)[nH]c3-c3ccnc(C)c3)cc21 [Example 57, 4-(4-Ethyl-3,4-dihydro-2H-benzo[b][1,4]oxazin-6-yl)-5-(2-methylpyridin-4-yl)-1H-imidazol-2-amine]"
≤ 1,> 100,1 to 10,≤ 1,1 to 10,> 100,> 100,1 to 10,1 to 10,1 to 10,1 to 10,10 to 100,1 to 10,1 to 10,1 to 10,< 4.00,"Cc1cc(-c2[nH]c(N)nc2-c2ccc3c(c2)N(C(=O)CN)CCO3)ccn1 [Example 62, 2-Amino-1-(6-(2-amino-5-(2-methylpyridin-4-yl)-1H-imidazol-4-yl)-2,3-dihydro-4H-benzo[b][1,4]oxazin-4-yl)ethan-1-one]"
≤ 1,> 100,1 to 10,≤ 1,1 to 10,> 100,> 100,1 to 10,1 to 10,1 to 10,1 to 10,1 to 10,1 to 10,1 to 10,1 to 10,< 4.00,"COCCN1CCOc2ccc(-c3nc(N)[nH]c3-c3ccnc(C)c3)cc21 [Example 64, 4-(4-(2-Methoxyethyl)-3,4-dihydro-2H-benzo[b][1,4]oxazin-6-yl)-5-(2-methylpyridin-4-yl)-1H-imidazol-2-amine]"

# Second part, the compound before the results:
Structure (SMILES),MIC [1] [µM],MIC [2] [µM],MIC [3] [µM],MIC [4] [µM],MIC [5] [µM],MIC [6] [µM],MIC [7] [µM],MIC [8] [µM],MIC [9] [µM],MIC [10] [µM],MIC [11] [µM],MIC [12] [µM],MIC [13] [µM],MIC [14] [µM],MIC [15] [µM],pIC50 [16]
"Cc1cc(-c2[nH]c(N)nc2-c2cc(F)c3c(c2)OCCO3)ccn1 [Example 56, 4-(8-fluoro-2,3-dihydrobenzo[b][1,4]dioxin-6-yl)-5-(2-methylpyridin-4-yl)-1H-imidazol-2-amine]",1 to 10,> 100,1 to 10,≤ 1,≤ 1,> 100,> 100,1 to 10,≤ 1,≤ 1,1 to 10,1 to 10,1 to 10,≤ 1,1 to 10,< 4.00
"Cc1cc(-c2[nH]c(N)nc2-c2ccc3c(c2)NCCC3)ccn1 [Example 58, 5-(2-Methylpyridin-4-yl)-4-(1,2,3,4-tetrahydroquinolin-7-yl)-1H-imidazol-2-amine]",≤ 1,> 100,1 to 10,≤ 1,1 to 10,> 100,> 100,10 to 100,1 to 10,1 to 10,1 to 10,10 to 100,10 to 100,1 to 10,10 to 100,< 4.00
"Cc1cc(-c2[nH]c(N)nc2-c2ccc3c(c2)N(C2CC2)CCO3)ccn1 [Example 65, 4-(4-Cyclopropyl-3,4-dihydro-2H-benzo[b][1,4]oxazin-6-yl)-5-(2-methylpyridin-4-yl)-1H-imidazol-2-amine]",1 to 10,> 100,≤ 1,≤ 1,≤ 1,> 100,> 100,1 to 10,≤ 1,≤ 1,≤ 1,1 to 10,1 to 10,≤ 1,1 to 10,< 4.00
